Assay results published in patent publication US20240391931A1 (Bristol-Myers Squibb Company, priority 2021, published 2024).
Where a name gives a salt, the structure may show the parent alone. Read-outs that look alike come from different tables or passages of the source.

Molecular target: EGFR (Homo sapiens, UniProt P00533)
Assay: EGFR signaling (pEGFR Tyr1068/total EGFR MSD) in A431 cells
Format: cell-based
Parameters: endogenous in cells; host or cells: A431, N87
Settings: for Selectivity A431 EC50/BT474 EC50: ratio A431 pEGFR EC50 to BT474 pHER2 EC50; for Selectivity A431 EC50/HEKYVMA EC50: ratio A431 pEGFR EC50 to HEK YVMA pHER2 EC50
Protocol: In addition to the engineered cell lines, the following cell lines were used: BT474 (human breast carcinoma), N87 (human gastric carcinoma), NCI-H1781 (human lung adenocarcinoma), and A431 (human epidermoid carcinoma); all cell lines were obtained from the American Type Culture Collection (ATCC, Manassas, VA). NCI-H1781 were grown in complete RPMI 1640 (Life Technologies, Carlsbad, CA) supplemented with 15% fetal bovine serum (FBS, Life Technologies, Carlsbad, CA) and 1% Penicillin-Streptomycin (P/S, Life Technologies, Carlsbad, CA). N87 cells were grown in complete RPMI 1640 supplemented with 10% FBS and 1% P/S. BT474 and A431 cells were grown in DMEM (Life Technologies, Carlsbad, CA) supplemented with 10% FBS and 1% P/S. All cells were maintained and propagated in a humidified 5% CO2 incubator at 37° C.
A431 Cells were plated in 96-well tissue-culture treated plates in full media for 6 h, then starved with media containing 0.1% FBS for overnight. Media was replaced with low serum media (1% FBS) containing compound at 10, 3.3, 1.1, 0.37, 0.12, 0.041, 0.014, 0.005 μM or DMSO control (0.1%). Cells were incubated for 1.5 hr, then stimulated with 100 ng/mL human EGF (PeproTech, Rocky Hill, NJ) for 10 minutes. Cells were washed with cold PBS, and lysed for 30 min on ice in complete MSD lysis buffer (prepared as described in HER2 Signaling Method); lysates were stored at −70° C. until further analysis. EGFR signaling was evaluated using phospho (Tyr 1068)/total EGFR whole cell lysate kit (Meso-Scale Discovery, Gaithersburg, MD). The phospho EGFR signal was normalized to total EGFR for each sample; results are reported as % DMSO control. The normalized data was fitted using a sigmoidal curve analysis program (Graph Pad Prism version 6) with variable Hill slope to determine EC50 values. The results are provided in Table 4, under column titled “A431-pEGFR EC50”.

[1] = A431 cells, read-out: A431 pEGFR EC50

Sequence of EGFR (P00533 25-1210): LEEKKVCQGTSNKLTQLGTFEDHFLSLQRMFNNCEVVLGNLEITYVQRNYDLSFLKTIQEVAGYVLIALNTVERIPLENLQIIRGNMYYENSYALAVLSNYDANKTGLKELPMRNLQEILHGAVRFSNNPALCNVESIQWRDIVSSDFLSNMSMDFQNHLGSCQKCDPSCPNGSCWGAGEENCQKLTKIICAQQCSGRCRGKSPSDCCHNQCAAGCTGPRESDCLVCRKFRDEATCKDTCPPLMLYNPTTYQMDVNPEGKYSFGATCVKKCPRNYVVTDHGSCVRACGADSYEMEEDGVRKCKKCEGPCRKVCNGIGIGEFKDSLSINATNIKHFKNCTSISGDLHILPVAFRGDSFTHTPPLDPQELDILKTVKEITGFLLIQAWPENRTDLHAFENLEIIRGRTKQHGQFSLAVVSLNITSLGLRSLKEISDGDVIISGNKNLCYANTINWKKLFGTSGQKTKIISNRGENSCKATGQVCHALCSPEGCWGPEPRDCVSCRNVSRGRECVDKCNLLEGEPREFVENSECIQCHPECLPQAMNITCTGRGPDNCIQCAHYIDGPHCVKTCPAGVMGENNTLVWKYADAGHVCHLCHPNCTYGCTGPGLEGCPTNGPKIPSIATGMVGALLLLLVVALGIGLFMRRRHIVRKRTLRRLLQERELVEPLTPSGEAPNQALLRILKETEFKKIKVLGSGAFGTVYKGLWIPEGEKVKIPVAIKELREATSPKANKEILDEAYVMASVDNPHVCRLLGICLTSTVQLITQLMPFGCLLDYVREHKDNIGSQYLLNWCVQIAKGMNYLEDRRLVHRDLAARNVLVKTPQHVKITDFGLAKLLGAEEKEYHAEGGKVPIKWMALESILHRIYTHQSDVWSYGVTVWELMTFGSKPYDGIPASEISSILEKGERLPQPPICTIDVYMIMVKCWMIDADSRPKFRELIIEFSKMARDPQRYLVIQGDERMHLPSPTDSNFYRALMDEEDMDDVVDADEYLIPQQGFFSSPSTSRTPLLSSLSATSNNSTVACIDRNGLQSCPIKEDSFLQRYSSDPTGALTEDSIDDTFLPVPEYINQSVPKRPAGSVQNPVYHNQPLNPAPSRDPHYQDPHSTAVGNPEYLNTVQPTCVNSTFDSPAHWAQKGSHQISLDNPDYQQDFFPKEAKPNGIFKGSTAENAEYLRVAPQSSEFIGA

| Compound | EC50 [1] | Selectivity A431 EC50/BT474 EC50 | Selectivity A431 EC50/HEKYVMA EC50 | EC50 (A431 pEGFR EC50, A431 cells) |
| --- | --- | --- | --- | --- |
| Cc1ccc(Oc2ccc(Nc3ncnc4sc5c(c34)C[C@@H](C)N(C(=O)/C=C/CN(C)C)[C@H]5C)cc2C)cn1 (racemic) [Compound 149, (E)-1-(6,8-cis-dimethyl-4-((3-methyl-4-((6-methylpyridin-3-yl)oxy)phenyl)amino)-5,8-dihydropyrido[4′,3′:4,5]thieno[2,3-d]pyrimidin-7(6H)-yl)-4-(dimethylamino)but-2-en-1-one] | 100 to 1000 nM | B (B: ≥ 20 and < 100) | D (D: ≥ 5 and < 10) |  |
| Cc1ccc(Oc2ccc(Nc3ncnc4sc5c(c34)C[C@@H](C)N(C(=O)/C=C/CN(C)C)[C@@H]5C)cc2C)cn1 (racemic) [Compound 165, (E)-1-(6,8-trans-dimethyl-4-((3-methyl-4-((6-methylpyridin-3-yl)oxy)phenyl)amino)-5,8-dihydropyrido[4′,3′:4,5]thieno[2,3-d]pyrimidin-7(6H)-yl)-4-(dimethylamino)but-2-en-1-one] | 1000 to 10000 nM | B (B: ≥ 20 and < 100) | D (D: ≥ 5 and < 10) |  |
| C=CC(=O)N1[C@H](C)Cc2c(sc3ncnc(Nc4ccc(Oc5ccc(C)nc5)c(C)c4)c23)[C@H]1C (racemic) [Compound 166, 1-(6,8-trans-dimethyl-4-((3-methyl-4-((6-methylpyridin-3-yl)oxy)phenyl)amino)-5,8-dihydropyrido[4′,3′:4,5]thieno[2,3-d]pyrimidin-7(6H)-yl)prop-2-en-1-one] | 100 to 1000 nM | B (B: ≥ 20 and < 100) | C (C: ≥ 10 and < 20) |  |
| C=CC(=O)N1Cc2sc3ncnc(Nc4ccc(Oc5ccc(C)nc5)c(C)c4)c3c2C(C)C1 (single isomer, unassigned) [Compound 145] | 100 to 1000 nM | C (C: ≥ 10 and < 20) | E (E: >1 and < 5) |  |
| C=CC(=O)N1Cc2sc3ncnc(Nc4ccc(Oc5ccc(C)nc5)c(C)c4)c3c2C(C)C1 (single isomer, unassigned) [Compound 146] | < 100 nM | C (C: ≥ 10 and < 20) | D (D: ≥ 5 and < 10) |  |
| Cc1ccc(Oc2ccc(Nc3ncnc4sc5c(c34)CC(C)N(C(=O)C=CCN(C)C)C5C)cc2C)cn1 (single isomer, unassigned) [Compound 162] | > 10000 nM | B (B: ≥ 20 and < 100) | B (B: ≥ 20 and < 100) |  |
| Cc1ccc(Oc2ccc(Nc3ncnc4sc5c(c34)C(C)CN(C(=O)C=CCN3CCOCC3)C5)cc2C)cn1 (single isomer, unassigned) [Compound 176] | 1000 to 10000 nM | B (B: ≥ 20 and < 100) | B (B: ≥ 20 and < 100) |  |
| Cc1ccc(Oc2ccc(Nc3ncnc4sc5c(c34)C(C)CN(C(=O)C=CCN(C)C(C)(C)C)C5)cc2C)cn1 (single isomer, unassigned) [Compound 178] | 100 to 1000 nM | D (D: ≥ 5 and < 10) | E (E: >1 and < 5) |  |
| Cc1cc(Nc2ncnc3sc4c(c23)CCN(C(=O)/C=C/CN2CCOCC2)C4)ccc1Oc1ccc2ncnn2c1 [Compound 12] | 1000 to 10000 nM | A (A: ≥100) | B (B: ≥ 20 and < 100) |  |
| Cc1ccc(Oc2ccc(Nc3ncnc4sc5c(c34)CCN(C(=O)/C=C/CN3CC4CCC(C3)O4)C5)cc2C)cn1 [Compound 13] | 100 to 1000 nM | C (C: ≥ 10 and < 20) | C (C: ≥ 10 and < 20) |  |
| Cc1ccc(Oc2ccc(Nc3ncnc4sc5c(c34)CCN(C(=O)/C=C/CN3CC4CC(C3)O4)C5)cc2C)cn1 [Compound 15] | 100 to 1000 nM | B (B: ≥ 20 and < 100) | B (B: ≥ 20 and < 100) |  |
| Cc1ccc(Oc2ccc(Nc3ncnc4sc5c(c34)CCN(C(=O)/C=C/CN3CC4CCC(C4)C3)C5)cc2C)cn1 [Compound 16, (E)-4-(3-azabicyclo[3.2.1]octan-3-yl)-1-(4-((3-methyl-4-((6-methylpyridin-3-yl)oxy)phenyl)amino)-5,8-dihydropyrido[4′,3′:4,5]thieno[2,3-d]pyrimidin-7(6H)-yl)but-2-en-1-one benzenesulfonate salt] |  | D (D: ≥ 5 and < 10) | D (D: ≥ 5 and < 10) | 100 to 1000 nM |
| O=C(/C=C/CN1CCOCC1)N1CCc2c(sc3ncnc(Nc4ccc(Oc5ccc6ncnn6c5)c(Cl)c4)c23)C1 [Compound 18] | 100 to 1000 nM | B (B: ≥ 20 and < 100) | B (B: ≥ 20 and < 100) |  |
| Cc1cc(Nc2ncnc3sc4c(c23)CCN(C(=O)/C=C/CN(C)C)C4)ccc1Oc1ccc2nccn2c1 [Compound 109, (E)-4-(dimethylamino)-1-(4-((4-(imidazo[1,2-a]pyridin-6-yloxy)-3-methylphenyl)amino)-5,6-dihydropyrido[4′,3′:4,5]thieno[2,3-d]pyrimidin-7(8H)-yl)but-2-en-1-one] | 100 to 1000 nM | D (D: ≥ 5 and < 10) | E (E: >1 and < 5) |  |
| Cc1cn2ccc(Oc3ccc(Nc4ncnc5sc6c(c45)CCN(C(=O)/C=C/CN(C)C)C6)cc3C)cc2n1 [Compound 110, (E)-4-(dimethylamino)-1-(4-((3-methyl-4-((2-methylimidazo[1,2-a]pyridin-7-yl)oxy)phenyl)amino)-5,8-dihydropyrido[4′,3′:4,5]thieno[2,3-d]pyrimidin-7(6H)-yl)but-2-en-1-one] | 1000 to 10000 nM | B (B: ≥ 20 and < 100) | C (C: ≥ 10 and < 20) |  |
| Cc1ccc(Oc2ccc(Nc3ncnc4sc5c(c34)CCN(C(=O)/C=C/CN3CCC[C@H](n4cccn4)C3)C5)cc2C)cn1 [Compound 112] | 100 to 1000 nM | B (B: ≥ 20 and < 100) | C (C: ≥ 10 and < 20) |  |

Now from value to compound, other results behind:

| EC50 [1] | Selectivity A431 EC50/BT474 EC50 | Selectivity A431 EC50/HEKYVMA EC50 | Compound | EC50 (A431 pEGFR EC50, A431 cells) |
| --- | --- | --- | --- | --- |
| > 10000 nM | B (B: ≥ 20 and < 100) | C (C: ≥ 10 and < 20) | Cc1ccc(Oc2ccc(Nc3ncnc4sc5c(c34)C(C)N(C(=O)C=CCN(C)C)C5)cc2C)cn1 (single isomer, unassigned) [Compound 148] |  |
| < 100 nM | D (D: ≥ 5 and < 10) | E (E: >1 and < 5) | Cc1ccc(Oc2ccc(Nc3ncnc4sc5c(c34)CC(C)N(C(=O)C=CCN(C)C)C5C)cc2C)cn1 (single isomer, unassigned) [Compound 161] |  |
| < 100 nM | B (B: ≥ 20 and < 100) | E (E: >1 and < 5) | Cc1ccc(Oc2ccc(Nc3ncnc4sc5c(c34)C(C)CN(C(=O)C=CCN(C)C(C)(C)C)C5)cc2C)cn1 (single isomer, unassigned) [Compound 179] |  |
| < 100 nM | E (E: >1 and < 5) | E (E: >1 and < 5) | C=CC(=O)N1CCc2c(sc3ncnc(Nc4ccc(Oc5cccnc5)c(C)c4)c23)C1 [Compound 11, 1-(4-((3-methyl-4-(pyridin-3-yloxy)phenyl)amino)-5,8-dihydropyrido[4′,3′:4,5]thieno[2,3-d]pyrimidin-7(6H)-yl)prop-2-en-1-one] |  |
| < 100 nM | D (D: ≥ 5 and < 10) | E (E: >1 and < 5) | Cc1ccc(Oc2ccc(Nc3ncnc4sc5c(c34)CCN(C(=O)/C=C/CN3CC4CCC3C4)C5)cc2C)cn1 (stereo not drawn) [Compound 14] |  |
| < 100 nM | C (C: ≥ 10 and < 20) | A (A: ≥100) | Cc1cc(Nc2ncnc3sc4c(c23)CCN(C(=O)/C=C/CN(C)C)C4)ccc1Oc1ccc2scnc2c1 [Compound 107, (E)-1-(4-((4-(benzo[d]thiazol-5-yloxy)-3-methylphenyl)amino)-5,8-dihydropyrido[4′,3′:4,5]thieno[2,3-d]pyrimidin-7(6H)-yl)-4-(dimethylamino)but-2-en-1-one] |  |
| 1000 to 10000 nM | A (A: ≥100) | B (B: ≥ 20 and < 100) | Cc1cc(Nc2ncnc3sc4c(c23)CN(C(=O)/C=C/CN(C)C)C4)ccc1Oc1ccc2ncnn2c1 [Compound 111, (E)-1-(4-((4-([1,2,4]Triazolo[1,5-a]pyridin-6-yloxy)-3-methylphenyl)amino)-5H-pyrrolo[3′,4′:4,5]thieno[2,3-d]pyrimidin-6(7H)-yl)-4-(dimethylamino)but-2-en-1-one] |  |
| 100 to 1000 nM | B (B: ≥ 20 and < 100) | C (C: ≥ 10 and < 20) | Cc1ccc(Oc2ccc(Nc3ncnc4sc5c(c34)CCN(C(=O)/C=C/CN3CCCC(c4nccs4)C3)C5)cc2C)cn1 (stereo not drawn) [Compound 113] |  |
